Data as given in PubChem BioAssay AID720688 (NMMLSC, 2013).
pEC50: −log10 of the molar value. The source made the active and inactive calls.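 Rule for the calls: active = half-effect concentration at most 10 µM, response change at least 30% across doses, and a curve fit passing quality checks; inactive = the rest.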

Target: Cell division control protein 42 homolog (Homo sapiens) (UniProt P60953)
Assay: Cdc42 wildtype GTP-binding inhibitors, late-stage follow-up, mechanism study for Ras-family GTPase inhibitor project, biochemical, protein source comparison, flow cytometry beads, Bodipy-FL-GTP (AID 720688)
Conditions: GST-Cdc42 beads

Sequence of Cell division control protein 42 homolog (Homo sapiens) (P60953 whole entry, looked up): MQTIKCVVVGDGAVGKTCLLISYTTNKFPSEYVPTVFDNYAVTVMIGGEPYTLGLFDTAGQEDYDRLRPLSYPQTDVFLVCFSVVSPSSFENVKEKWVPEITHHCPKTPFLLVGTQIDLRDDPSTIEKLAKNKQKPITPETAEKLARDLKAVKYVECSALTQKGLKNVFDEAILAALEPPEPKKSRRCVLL

| SMILES | pEC50 (protein source 2) | % response remaining, lower = inhibition (protein source 2, at 100 µM (top of the series)) |
| --- | --- | --- |
| CC1(C)Cc2c(sc(NC(=S)NC(=O)c3cccc(N=[N+]=[N-])c3)c2C(=O)O)CO1 | 4.73 |  |
| CC1(C)Cc2c(sc(NC(=S)NC(=O)c3ccc(N=[N+]=[N-])cc3)c2C(=O)O)CO1 |  | inactive |
